# “And” between values parts separate entries of the source, which are not always exact repeats. Identical values can stand only once. Like-named read-outs stand apart in the source and are kept apart here.
# How the values were obtained:
# [1] = test system: HCoV-229E; assay: Viral CPE assay in MRC-5 cells (CellTiter Glo); type: cell-based
# [2] = target: T1, OAT1 (Homo sapiens, UniProt Q4U2R8); assay: Transporter inhibition using transfected HEK293 cells; settings: IC50, [3H]PAH (0.5 µM)
# T1 sequence (Q4U2R8 1-563): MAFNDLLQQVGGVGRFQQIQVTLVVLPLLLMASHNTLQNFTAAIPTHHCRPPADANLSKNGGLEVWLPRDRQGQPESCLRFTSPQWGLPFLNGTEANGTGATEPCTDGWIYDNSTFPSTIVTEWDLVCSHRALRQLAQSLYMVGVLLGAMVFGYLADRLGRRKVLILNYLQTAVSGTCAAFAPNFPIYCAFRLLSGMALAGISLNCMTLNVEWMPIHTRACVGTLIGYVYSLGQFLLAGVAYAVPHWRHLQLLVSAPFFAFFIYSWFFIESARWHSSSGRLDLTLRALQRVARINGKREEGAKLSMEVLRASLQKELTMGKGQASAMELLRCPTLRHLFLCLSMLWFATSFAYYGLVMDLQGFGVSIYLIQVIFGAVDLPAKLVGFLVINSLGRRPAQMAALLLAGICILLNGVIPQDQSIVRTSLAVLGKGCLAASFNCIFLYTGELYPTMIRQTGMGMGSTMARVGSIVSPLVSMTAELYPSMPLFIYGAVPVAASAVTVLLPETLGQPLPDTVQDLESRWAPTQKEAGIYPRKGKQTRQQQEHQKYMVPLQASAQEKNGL
# [3] = target: CYP2C19 (Homo sapiens, UniProt P33261); assay: Reversible CYP inhibition in human liver microsomes; settings: for activity at 0.01 µM / activity at 0.158 µM / activity at 0.398 µM / activity at 1 µM / activity at 15.8 µM / activity at 39.8 µM / activity at 100 µM: human, microsomes, pH 7.4, Percent of Control Activity; for activity at 39.8 µM: CYP 2C19, 39.8 µM
# [4] = Plasma protein binding by equilibrium dialysis; settings: dog plasma, 3.44 uM; for fraction unbound at 6 h, 3.44 uM: dog, plasma
# [5] = In vitro micronucleus formation; type: cell-based
# [6] = target: T2, OAT3 (Homo sapiens, UniProt Q8TCC7); assay: Transporter inhibition using transfected HEK293 cells; settings: IC50, [3H]ES (0.1 µM)
# T2 sequence (Q8TCC7 1-542): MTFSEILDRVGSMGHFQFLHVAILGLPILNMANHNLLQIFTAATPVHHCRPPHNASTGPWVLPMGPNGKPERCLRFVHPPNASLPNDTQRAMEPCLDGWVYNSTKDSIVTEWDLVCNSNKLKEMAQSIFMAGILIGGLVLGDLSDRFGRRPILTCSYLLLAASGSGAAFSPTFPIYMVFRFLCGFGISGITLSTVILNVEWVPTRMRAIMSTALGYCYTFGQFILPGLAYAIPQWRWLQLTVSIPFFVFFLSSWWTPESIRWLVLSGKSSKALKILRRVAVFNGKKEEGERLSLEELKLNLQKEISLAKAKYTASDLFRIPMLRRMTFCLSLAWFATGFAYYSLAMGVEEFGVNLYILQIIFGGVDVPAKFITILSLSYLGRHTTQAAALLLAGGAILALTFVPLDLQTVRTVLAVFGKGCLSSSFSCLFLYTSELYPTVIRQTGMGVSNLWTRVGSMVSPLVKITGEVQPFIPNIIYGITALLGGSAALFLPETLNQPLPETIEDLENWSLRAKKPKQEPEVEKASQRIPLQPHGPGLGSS
# [7] = Plasma protein binding by equilibrium dialysis; settings: human plasma; for fraction unbound at 6 h, 3.44 uM / fraction unbound at 6 h: human, plasma
# Chain of CYP2C19 (P33261 whole entry): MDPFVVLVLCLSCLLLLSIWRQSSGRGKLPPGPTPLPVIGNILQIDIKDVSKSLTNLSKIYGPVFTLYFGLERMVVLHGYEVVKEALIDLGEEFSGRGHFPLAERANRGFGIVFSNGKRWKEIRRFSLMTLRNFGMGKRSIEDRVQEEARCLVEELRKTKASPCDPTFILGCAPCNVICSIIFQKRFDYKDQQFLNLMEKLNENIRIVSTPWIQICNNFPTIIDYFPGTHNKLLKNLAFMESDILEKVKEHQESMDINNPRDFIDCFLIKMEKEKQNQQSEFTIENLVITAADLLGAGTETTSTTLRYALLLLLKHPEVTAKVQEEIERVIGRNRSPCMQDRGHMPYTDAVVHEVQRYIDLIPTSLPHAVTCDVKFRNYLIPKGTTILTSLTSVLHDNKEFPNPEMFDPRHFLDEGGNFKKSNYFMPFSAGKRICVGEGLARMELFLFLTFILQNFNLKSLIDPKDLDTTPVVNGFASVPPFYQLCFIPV
structure (smiles),measurement,setting,value
COc1cccc2[nH]c(C(=O)N[C@@H](CC(C)C)C(=O)N[C@@H](C[C@@H]3CCNC3=O)C(=O)COP(=O)(O)O)cc12 [PF-07304814],EC50,"[1]; Human coronavirus 229E, MRC5, read-out: EC50 GeoMean (95% CI), efflux inhibitor CP-100356: 0",74 nM
same,EC50,"[1]; Human coronavirus 229E, MRC5, read-out: EC50 GeoMean (95% CI), efflux inhibitor CP-100356: 0.5 μM",58 nM
same,EC50,"[1]; MRC-5, plus 0.5 uM efflux inhibitor, one value per run date (N=3), read-out: EC50",81.8 nM
same,IC50,[2],> 300000 nM
same,IC50,[3],> 100000 nM
same,Percent of Control Activity,"[3]; CYP 2C19, 0.01 µM, Zero-Minute Preincubation, 0.01 µM",94.2%
same,Percent of Control Activity,"[3]; CYP 2C19, 0.158 µM, 30-Minute Preincubation, 0.158 µM",96.4%
same,Percent of Control Activity,"[3]; CYP 2C19, 0.158 µM, Zero-Minute Preincubation, 0.158 µM",101.4%
same,Percent of Control Activity,"[3]; CYP 2C19, 0.398 µM, 30-Minute Preincubation, 0.398 µM",100.7%
same,Percent of Control Activity,"[3]; CYP 2C19, 0.398 µM, Zero-Minute Preincubation, 0.398 µM",97.9%
same,Percent of Control Activity,"[3]; CYP 2C19, 1 µM, 30-Minute Preincubation, 1 µM",97.8%
same,Percent of Control Activity,"[3]; CYP 2C19, 1 µM, Zero-Minute Preincubation, 1 µM",102.1%
same,Percent of Control Activity,"[3]; CYP 2C19, 15.8 µM, 30-Minute Preincubation, 15.8 µM",97.1%
same,Percent of Control Activity,"[3]; CYP 2C19, 15.8 µM, Zero-Minute Preincubation, 15.8 µM",107.2% and 102.9%
same,Percent of Control Activity,"[3]; CYP 2C19, 100 µM, 30-Minute Preincubation, 100 µM",97.8% and 97.1%
same,IC50,"[3]; S-Mephenytoin 4′-hydroxylation, T0",> 100000 nM
same,activity at 0.01 µM,"[3]; CYP 2C19, 0.01 µM, 30-Minute Preincubation",103%
same,activity at 0.01 µM,"[3]; CYP 2C19, 0.01 µM, Zero-Minute Preincubation",99.3%
same,activity at 0.158 µM,"[3]; CYP 2C19, 0.158 µM, 30-Minute Preincubation",100%
same,activity at 0.158 µM,"[3]; CYP 2C19, 0.158 µM, Zero-Minute Preincubation",94.4%
same,activity at 0.398 µM,"[3]; CYP 2C19, 0.398 µM, 30-Minute Preincubation",102%
same,activity at 0.398 µM,"[3]; CYP 2C19, 0.398 µM, Zero-Minute Preincubation",96.5%
same,activity at 1 µM,"[3]; CYP 2C19, 1 µM, 30-Minute Preincubation",101%
same,activity at 1 µM,"[3]; CYP 2C19, 1 µM, Zero-Minute Preincubation",95.8%
same,activity at 15.8 µM,"[3]; CYP 2C19, 15.8 µM, 30-Minute Preincubation",102%
same,activity at 15.8 µM,"[3]; CYP 2C19, 15.8 µM, Zero-Minute Preincubation",104%
same,activity at 39.8 µM,[3]; 30-Minute Preincubation,97.7%
same,activity at 39.8 µM,[3]; Zero-Minute Preincubation,94.4%
same,activity at 100 µM,"[3]; CYP 2C19, 100 µM, 30-Minute Preincubation",95.5%
same,activity at 100 µM,"[3]; CYP 2C19, 100 µM, Zero-Minute Preincubation",91.5%
same,"fraction unbound at 6 h, 3.44 uM","[4]; both, Beagle, pH 7.4, Individual fraction unbound, Beagle, male and female, Day 1",0.322
same,"fraction unbound at 6 h, 3.44 uM","[4]; both, Beagle, pH 7.4, Individual fraction unbound, Beagle, male and female, Day 2",0.344
same,"fraction unbound at 6 h, 3.44 uM","[4]; both, Beagle, pH 7.4, Individual fraction unbound, Beagle, male and female, Day 3",0.303
same,Individual fraction unbound,"[4]; Beagle, male and female, Day 1",0.288 and 0.267 and 0.276
same,Individual fraction unbound,"[4]; Beagle, male and female, Day 2",0.33 and 0.389 and 0.349
same,Individual fraction unbound,"[4]; Beagle, male and female, Day 3",0.301 and 0.285 and 0.313
same,"fraction unbound at 6 h, 3.44 uM","[4]; pH 7.4, fraction unbound Geomean, n=12",0.312
same,micronuclei formation,[5],did not induce micronuclei formation
same,IC50,[6],> 300000 nM
same,Individual fraction unbound,"[7]; 3.44 uM, replicates Day 1-3",0.199 and 0.194 and 0.181 and 0.192 and 0.178 and 0.182 and 0.198 and 0.168 and 0.191 and 0.180 and 0.167
same,"fraction unbound at 6 h, 3.44 uM","[7]; pH 7.4, Fraction unbound, Geomean, 3.44 uM, n 12",0.184
same,"fraction unbound at 6 h, 3.44 uM","[7]; pH 7.4, Individual fraction unbound, 3.44 uM, replicates Day 1-3",0.186
same,fraction unbound at 6 h,"[7]; pH 7.4, Measured plasma fu / Human plasma fu",0.184
same,fraction unbound at 6 h,"[7]; pH 7.4, Unbound fraction fu (%CV)",0.184
same,"fraction unbound at 6 h, 3.44 uM","[7]; pH 7.4, fraction unbound Geomean, 3.44 uM, n=12",0.184
